In the supplement of paper PMC11616607:

Assays:
Assay in all cases: drug sensitivity score (DSS) from 5-point dose-response viability curve (DSS (area-under-curve based score)); higher = more sensitive (stronger growth inhibition or killing); extreme values may be limits of the assay
Conditions in all cases: exposure time: 72 h; concentration range: 5 concentrations over 10,000-fold range
CAOV3 = test system: CAOV3
Outline: (§1)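 Ovarian cancer and normal ovarian cell lines were tested in 384-well plates, with drugs dispensed acoustically (Echo 550) in DMSO or water at five concentrations covering a 10,000-fold range. After 1,500 cells per well were added, plates were incubated for 3 days at 37°C and 5% CO2, and viability was read by CellTiter-Glo luminescence on a PHERAstar FS. Breeze software gave a drug sensitivity score for each cell line and drug, where a higher score means greater sensitivity. A value of zero means no response.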

HOSE2C = test system: HOSE2C
Outline: as §1

Kuramochi = test system: Kuramochi
Outline: as §1

OV90 = test system: OV90
Outline: as §1

OVCAR8 = test system: OVCAR8
Outline: as §1

OVCAR4 = test system: OVCAR4
Outline: as §1

COV318 = test system: COV318
Outline: as §1

JHOS2 = test system: JHOS2
Outline: as §1

Ovsaho = test system: Ovsaho
Outline: as §1

COV362 = test system: COV362
Outline: as §1

OVCAR5 = test system: OVCAR5
Outline: as §1

HOSE1C = test system: HOSE1C
Outline: as §1

Structure (SMILES) | drug sensitivity score (CAOV3) | drug sensitivity score (HOSE2C) | drug sensitivity score (Kuramochi) | drug sensitivity score (OV90) | drug sensitivity score (OVCAR8) | drug sensitivity score (OVCAR4) | drug sensitivity score (COV318) | drug sensitivity score (JHOS2) | drug sensitivity score (Ovsaho) | drug sensitivity score (COV362) | drug sensitivity score (OVCAR5) | drug sensitivity score (HOSE1C)
CC[C@H](C)C(=O)O[C@H]1C[C@@H](C)C=C2C=C[C@H](C)[C@H](CC[C@@H]3C[C@@H](O)CC(=O)O3)[C@H]21 [Lovastatin] | 0 | 7.8 | 0.3 | 1.3 | 1.7 | 0.2 | 0 | 0 | 0.7 | 0.1 | 0.8 | 7.5
CN1C(=O)N[C@H](Cc2c[nH]c3c(Cl)cccc23)C1=O [Necrostatin 2] | 0 | 0 | 0 | 0 | 0 | 0 | 0 | 0 | 0 | 0 | 0 | 0
O[C@H]1CC[C@H](Nc2ncc3nc(Nc4c(F)cc(F)cc4F)n([C@H]4CCOC4)c3n2)CC1 [Tanzisertib] | 0 | 0 | 0.8 | 0 | 0 | 0 | 0 | 0 | 0.4 | 0 | 1.9 | 0
CNc1ncc2cc(-c3cc(NC(=O)NCCC(C)(C)C)c(F)cc3C)c(C)nc2n1 | 7.9 | 5 | 8.7 | 24.4 | 9.9 | 3.7 | 0.8 | 10.3 | 8.9 | 4.2 | 11.3 | 4.2
CC[C@]1(O)C[C@@H]2CN(CCc3c([nH]c4ccccc34)[C@@](C(=O)OC)(c3cc4c(cc3OC)N(C)[C@H]3[C@@](O)(C(=O)OC)[C@H](OC(C)=O)[C@]5(CC)C=CCN6CC[C@]43[C@@H]65)C2)C1 [Vinblastine] | 22.4 | 12.3 | 4.4 | 18.5 | 8.6 | 9.1 | 1.1 | 3.7 | 5.3 | 2.3 | 3 | 13.8
COc1c(OCCCN2CCOCC2)ccc2c1N=C(NC(=O)c1cnc(N)nc1)N1CCN=C21 [Copanlisib] | 9.9 | 6.6 | 8 | 3.5 | 5.7 | 5.3 | 3.8 | 2.6 | 6.3 | 2.5 | 10.4 | 4.8
CN(C)Cc1c(C(=O)NCCOc2ccc(C(=O)NO)cc2)oc2ccccc12 [Abexinostat] | 13.7 | 20 | 14.6 | 16.5 | 19.9 | 10.5 | 10.1 | 11.8 | 10 | 5.6 | 21.7 | 24.1
COCCNCc1ccc(-c2cc3nccc(Oc4ccc(NC(=O)C5(C(=O)Nc6ccc(F)cc6)CC5)cc4F)c3s2)nc1 [Sitravatinib] | 1.9 | 3.3 | 2.5 | 1.6 | 0.5 | 0.7 | 0.5 | 1.2 | 0 | 2.3 | 4.5 | 2.6
C[C@@H](Oc1cc(-c2cnn(C3CCNCC3)c2)cnc1N)c1c(Cl)ccc(F)c1Cl [Crizotinib] | 0 | 0.1 | 0 | 0 | 0 | 0 | 0 | 0 | 0 | 0 | 0 | 0
CO[C@H]1C[C@@H]2CC[C@@H](C)[C@@](O)(O2)C(=O)C(=O)N2CCCC[C@H]2C(=O)O[C@H]([C@H](C)C[C@@H]2CC[C@@H](OC(=O)C(C)(CO)CO)[C@H](OC)C2)CC(=O)[C@H](C)/C=C(\C)[C@@H](O)[C@@H](OC)C(=O)[C@H](C)C[C@H](C)/C=C/C=C/C=C/1C [Temsirolimus] | 6.6 | 3.2 | 3.2 | 11.2 | 7.6 | 3.1 | 0 | 2.8 | 3 | 0 | 8 | 3.9
FC(F)c1nc2ccccc2n1-c1nc(N2CCOCC2)nc(N2CCOCC2)n1 [ZSTK474] | 8 | 10.6 | 17.4 | 5.7 | 8.9 | 7.7 | 7.8 | 4 | 10.6 | 4.4 | 11 | 8.8
C=CC[C@@H]1/C=C(\C)C[C@H](C)C[C@H](OC)[C@H]2O[C@@](O)(C(=O)C(=O)N3CCCC[C@H]3C(=O)O[C@H](/C(C)=C/[C@@H]3CC[C@@H](O)[C@H](OC)C3)[C@H](C)[C@@H](O)CC1=O)[C@H](C)C[C@@H]2OC [Tacrolimus] | 0.5 | 0 | 1 | 0 | 3.4 | 0.3 | 0 | 1.8 | 0.7 | 0.1 | 0.5 | 0.3
CNC(=O)[C@@H](NC(=O)[C@H](CC(C)C)[C@H](O)C(=O)NO)C(C)(C)C [Marimastat] | 1.3 | 0 | 0 | 0.1 | 0.1 | 0.1 | 0 | 0 | 0 | 0 | 1.6 | 0
Cc1cc(Nc2cc(N3CCN(C)CC3)nc(Sc3ccc(NC(=O)C4CC4)cc3)n2)n[nH]1 [Tozasertib] | 25.2 | 6.8 | 3.6 | 6.4 | 6.5 | 5.8 | 1.3 | 2.1 | 2.3 | 1.6 | 6.1 | 5.2
CC1(C)CCC(c2ccc(Cl)cc2)=C(CN2CCN(c3ccc(C(=O)NS(=O)(=O)c4ccc(N[C@H](CCN5CCOCC5)CSc5ccccc5)c(S(=O)(=O)C(F)(F)F)c4)cc3)CC2)C1 [Navitoclax] | 2.6 | 5.9 | 0 | 10.2 | 0 | 2 | 0 | 0 | 3 | 0 | 0.9 | 24.2
Nc1nc(OCc2cc(Br)cs2)c2[nH]cnc2n1 [Lomeguatrib] | 0 | 0 | 0.8 | 0 | 0 | 0 | 0.4 | 0 | 2.5 | 0 | 0 | 0
Cc1cc(C)c(CNC(=O)c2cc(-c3ccc(CN4CCOCC4)cc3)cc3c2cnn3C2CCCC2)c(=O)[nH]1 [EPZ-5687] | 0 | 0 | 0 | 0 | 0 | 0 | 0 | 0 | 0 | 1.1 | 1.8 | 0
N.N.[Cl][Pt][Cl] [Cisplatin] | 16.5 | 16.4 | 11.2 | 4.8 | 5 | 10.7 | 11.7 | 4.3 | 15.7 | 3.3 | 8.8 | 18.3
CC(C)n1nc(-c2ccc3oc(N)nc3c2)c2c(N)ncnc21 [Sapanisertib] | 8.4 | 10.9 | 8.9 | 15.2 | 9.8 | 10.7 | 8.2 | 7.4 | 14.6 | 3.2 | 12.4 | 13
CC[C@@H]1C(=O)N(C)c2cnc(Nc3ccc(C(=O)N[C@H]4CC[C@H](N5CCN(CC6CC6)CC5)CC4)cc3OC)nc2N1C(C)C [Volasertib] | 13.1 | 6.3 | 7.3 | 11.5 | 15.5 | 4.4 | 4.1 | 7.1 | 10.4 | 3.2 | 12.2 | 9.7
COc1cccc2c1C(=O)c1c(O)c3c(c(O)c1C2=O)C[C@@](O)(C(=O)CO)C[C@@H]3O[C@H]1C[C@H](N)[C@H](O)[C@H](C)O1 [Doxorubicin] | 8.6 | 0 | 6.2 | 6.7 | 8.8 | 3.5 | 3.6 | 5.9 | 7.6 | 2.3 | 4.6 | 0
Cc1ccc(Nc2nccc(N(C)c3ccc4c(C)n(C)nc4c3)n2)cc1S(N)(=O)=O [Pazopanib] | 0 | 0 | 0 | 0 | 0 | 0 | 0.1 | 0 | 0 | 0 | 0 | 0
CCN(CC)CCNC(=O)c1c(C)[nH]c(/C=C2\C(=O)Nc3ccc(F)cc32)c1C [Sunitinib] | 0 | 0 | 0 | 0 | 0 | 0 | 0 | 0.1 | 0 | 0 | 0 | 0
COc1cc2/c(=N/c3ccc(Br)cc3F)nc[nH]c2cc1OCC1CCN(C)CC1 [Vandetanib] | 1.7 | 0 | 2.9 | 0 | 0 | 1.2 | 0.6 | 0.6 | 4.7 | 1.3 | 1.5 | 0
CS(=O)(=O)c1ccc(-c2cnc(N)c(C(=O)Nc3ccccc3)n2)cc1 [VE-821] | 0 | 1.7 | 0 | 0 | 0 | 0 | 0 | 0 | 1.2 | 0 | 0 | 4
Cc1c2oc3c(C)ccc(C(=O)N[C@@H]4C(=O)N[C@H](C(C)C)C(=O)N5CCC[C@H]5C(=O)N(C)CC(=O)N(C)[C@@H](C(C)C)C(=O)O[C@@H]4C)c3nc-2c(C(=O)N[C@@H]2C(=O)N[C@H](C(C)C)C(=O)N3CCC[C@H]3C(=O)N(C)CC(=O)N(C)[C@@H](C(C)C)C(=O)O[C@@H]2C)c(N)c1=O [Dactinomycin] | 23.4 | 30.5 | 27.9 | 23.1 | 24.3 | 17.5 | 9 | 26.5 | 26.5 | 13.9 | 20.9 | 34.6
CCc1cncnc1N1CCN(Cc2nc3ccc(C(F)(F)F)cc3[nH]2)CC1 | 0.9 | 0 | 1.1 | 2.9 | 3.1 | 2.3 | 1.1 | 0.8 | 1.2 | 0 | 2.8 | 0
CC(=O)Nc1cccc(-n2c(=O)n(C3CC3)c(=O)c3c(Nc4ccc(I)cc4F)n(C)c(=O)c(C)c32)c1 [Trametinib] | 11.8 | 0 | 7.1 | 25 | 3.4 | 1.9 | 0 | 6.7 | 12.4 | 4.9 | 12.9 | 0
